Experiments:
[1] = tested on: sputum cells (dysplastic, pre-cancerous and cancerous cells); experiment: Glass slide assay for detection of pre-cancerous and cancerous cells with TCPP (fluorescence microscopy of sputum monolayer slides vs PAP-stain cytomorphology); format: cell-based, human; details: for Slides with morphology using TCPP/Slides with morphology using cytomorphology: N = 60 blinded sputum samples, 40 μg/mL TCPP
[2] = Maximum solubility of TCPP in saline or blood; format: physicochemical
[3] = tested on: cancerous cells of the lung; details: incubation of a cell sample for 6-24 hours with 200 μg/ml TCPP; cited from earlier work
[4] = of the six TCPP samples with class 11 designation

In the case of `O=C(O)c1ccc(-c2c3nc(c(-c4ccc(C(=O)O)cc4)c4ccc([nH]4)c(-c4ccc(C(=O)O)cc4)c4nc(c(-c5ccc(C(=O)O)cc5)c5ccc2[nH]5)C=C4)C=C3)cc1` [TCPP], the “Number of Samples with Cells having Numerical Description by TCPP Fluorescence Microscopy/Number of Samples with Cell Description by Cytmorphology” value ([1]; 9 = Degenerated cell clusters, medium to high fluorescence, Severe dysplasia (n = 8)) is reported as 0/8, the “Number of Samples with Cells having Numerical Description by TCPP Fluorescence Microscopy/Number of Samples with Cell Description by Cytmorphology” value ([1]; 10 = Cells uniform size with small round nucleus, medium fluorescence (nucleus only), Adenicarcinoma, squamous cell and small cell carcinoma (n = 10)) is reported as 2/10 and the “Number of Samples with Cells having Numerical Description by TCPP Fluorescence Microscopy/Number of Samples with Cell Description by Cytmorphology” value ([1]; 10 = Cells uniform size with small round nucleus, medium fluorescence (nucleus only), Carcinoma in situ (n = 11)) is reported as 1/11. For the same compound, the “Number of Samples with Cells having Numerical Description by TCPP Fluorescence Microscopy/Number of Samples with Cell Description by Cytmorphology” value ([1]; 10 = Cells uniform size with small round nucleus, medium fluorescence (nucleus only), Mild dysplasia (n = 12)) was 2/12, the “Number of Samples with Cells having Numerical Description by TCPP Fluorescence Microscopy/Number of Samples with Cell Description by Cytmorphology” value ([1]; 10 = Cells uniform size with small round nucleus, medium fluorescence (nucleus only), Moderate dysplasia (n = 9)) was 2/9 and the “Number of Samples with Cells having Numerical Description by TCPP Fluorescence Microscopy/Number of Samples with Cell Description by Cytmorphology” value ([1]; 10 = Cells uniform size with small round nucleus, medium fluorescence (nucleus only), Negative or metaplastic (n = 10)) was 2/10. For the same compound, the “Number of Samples with Cells having Numerical Description by TCPP Fluorescence Microscopy/Number of Samples with Cell Description by Cytmorphology” value ([1]; 10 = Cells uniform size with small round nucleus, medium fluorescence (nucleus only), Severe dysplasia (n = 8)) was 1/8, the “Number of Samples with Cells having Numerical Description by TCPP Fluorescence Microscopy/Number of Samples with Cell Description by Cytmorphology” value ([1]; 11 = Cell membrane barely visible, medium fluorescence, Adenicarcinoma, squamous cell and small cell carcinoma (n = 10)) was 0/10 and the “Number of Samples with Cells having Numerical Description by TCPP Fluorescence Microscopy/Number of Samples with Cell Description by Cytmorphology” value ([1]; 11 = Cell membrane barely visible, medium fluorescence, Carcinoma in situ (n = 11)) was 2/11. For the same compound, the “Number of Samples with Cells having Numerical Description by TCPP Fluorescence Microscopy/Number of Samples with Cell Description by Cytmorphology” value ([1]; 11 = Cell membrane barely visible, medium fluorescence, Mild dysplasia (n = 12)) was 6/12, the “Number of Samples with Cells having Numerical Description by TCPP Fluorescence Microscopy/Number of Samples with Cell Description by Cytmorphology” value ([1]; 11 = Cell membrane barely visible, medium fluorescence, Moderate dysplasia (n = 9)) was 2/9 and the “Number of Samples with Cells having Numerical Description by TCPP Fluorescence Microscopy/Number of Samples with Cell Description by Cytmorphology” value ([1]; 11 = Cell membrane barely visible, medium fluorescence, Negative or metaplastic (n = 10)) was 6/10. The “Number of Samples with Cells having Numerical Description by TCPP Fluorescence Microscopy/Number of Samples with Cell Description by Cytmorphology” value ([1]; 11 = Cell membrane barely visible, medium fluorescence, Severe dysplasia (n = 8)) was 2/8, the “Number of Samples with Cells having Numerical Description by TCPP Fluorescence Microscopy/Number of Samples with Cell Description by Cytmorphology” value ([1]; 12 = Nuclear debris clumps, no fluorescence, Adenicarcinoma, squamous cell and small cell carcinoma (n = 10)) was 0/10 and the “Number of Samples with Cells having Numerical Description by TCPP Fluorescence Microscopy/Number of Samples with Cell Description by Cytmorphology” value ([1]; 12 = Nuclear debris clumps, no fluorescence, Carcinoma in situ (n = 11)) was 0/11. For the same compound, the “Number of Samples with Cells having Numerical Description by TCPP Fluorescence Microscopy/Number of Samples with Cell Description by Cytmorphology” value ([1]; 12 = Nuclear debris clumps, no fluorescence, Mild dysplasia (n = 12)) was 1/12, the “Number of Samples with Cells having Numerical Description by TCPP Fluorescence Microscopy/Number of Samples with Cell Description by Cytmorphology” value ([1]; 12 = Nuclear debris clumps, no fluorescence, Moderate dysplasia (n = 9)) was 0/9 and the “Number of Samples with Cells having Numerical Description by TCPP Fluorescence Microscopy/Number of Samples with Cell Description by Cytmorphology” value ([1]; 12 = Nuclear debris clumps, no fluorescence, Negative or metaplastic (n = 10)) was 0/10. For the same compound, the “Number of Samples with Cells having Numerical Description by TCPP Fluorescence Microscopy/Number of Samples with Cell Description by Cytmorphology” value ([1]; 12 = Nuclear debris clumps, no fluorescence, Severe dysplasia (n = 8)) was 0/8, the “Number of Samples with Cells having Numerical Description by TCPP Fluorescence Microscopy/Number of Samples with Cell Description by Cytmorphology” value ([1]; 13 = Nuclear debris background, no fluorescence, Adenicarcinoma, squamous cell and small cell carcinoma (n = 10)) was 3/10 and the “Number of Samples with Cells having Numerical Description by TCPP Fluorescence Microscopy/Number of Samples with Cell Description by Cytmorphology” value ([1]; 13 = Nuclear debris background, no fluorescence, Carcinoma in situ (n = 11)) was 5/11. For the same compound, the “Number of Samples with Cells having Numerical Description by TCPP Fluorescence Microscopy/Number of Samples with Cell Description by Cytmorphology” value ([1]; 13 = Nuclear debris background, no fluorescence, Mild dysplasia (n = 12)) was 5/12, the “Number of Samples with Cells having Numerical Description by TCPP Fluorescence Microscopy/Number of Samples with Cell Description by Cytmorphology” value ([1]; 13 = Nuclear debris background, no fluorescence, Moderate dysplasia (n = 9)) was 8/9 and the “Number of Samples with Cells having Numerical Description by TCPP Fluorescence Microscopy/Number of Samples with Cell Description by Cytmorphology” value ([1]; 13 = Nuclear debris background, no fluorescence, Negative or metaplastic (n = 10)) was 6/10. For the same compound, the “Number of Samples with Cells having Numerical Description by TCPP Fluorescence Microscopy/Number of Samples with Cell Description by Cytmorphology” value ([1]; 13 = Nuclear debris background, no fluorescence, Severe dysplasia (n = 8)) was 2/8, the “Number of Samples with Cells having Numerical Description by TCPP Fluorescence Microscopy/Number of Samples with Cell Description by Cytmorphology” value ([1]; 14 = Nuclear debris background, medium fluorescence, Adenicarcinoma, squamous cell and small cell carcinoma (n = 10)) was 0/10 and the “Number of Samples with Cells having Numerical Description by TCPP Fluorescence Microscopy/Number of Samples with Cell Description by Cytmorphology” value ([1]; 14 = Nuclear debris background, medium fluorescence, Carcinoma in situ (n = 11)) was 1/11. The “Number of Samples with Cells having Numerical Description by TCPP Fluorescence Microscopy/Number of Samples with Cell Description by Cytmorphology” value ([1]; 14 = Nuclear debris background, medium fluorescence, Mild dysplasia (n = 12)) was 2/12, the “Number of Samples with Cells having Numerical Description by TCPP Fluorescence Microscopy/Number of Samples with Cell Description by Cytmorphology” value ([1]; 14 = Nuclear debris background, medium fluorescence, Moderate dysplasia (n = 9)) was 2/9 and the “Number of Samples with Cells having Numerical Description by TCPP Fluorescence Microscopy/Number of Samples with Cell Description by Cytmorphology” value ([1]; 14 = Nuclear debris background, medium fluorescence, Negative or metaplastic (n = 10)) was 1/10. For the same compound, the “Number of Samples with Cells having Numerical Description by TCPP Fluorescence Microscopy/Number of Samples with Cell Description by Cytmorphology” value ([1]; 14 = Nuclear debris background, medium fluorescence, Severe dysplasia (n = 8)) was 1/8, the “Avg. # numerical descriptions per cell examined” value ([1]; Adenicarcinoma, squamous cell and small cell carcinoma (n = 10)) was 4.90 and the “Slides with morphology using TCPP/Slides with morphology using cytomorphology” value (“Slides with morphology using TCPP/Slides” below) ([1]; Adenocarcinoma, squamous cell and small cell carcinoma) was 10/10. For the same compound, the “Avg. # numerical descriptions per cell examined” value ([1]; Carcinoma in situ (n = 11)) was 4.82, the “Slides with morphology using TCPP/Slides” value ([1]; Carcinoma in situ) was 11/11 and the “Avg. # numerical descriptions per cell examined” value ([1]; Mild dysplasia (n = 12)) was 3.08. For the same compound, the “Slides with morphology using TCPP/Slides” value ([1]; Mild dysplasia) was 12/12, the “Avg. # numerical descriptions per cell examined” value ([1]; Moderate dysplasia (n = 9)) was 4.11 and the “Slides with morphology using TCPP/Slides” value ([1]; Moderate dysplasia) was 9/9. The “Avg. # numerical descriptions per cell examined” value ([1]; Negative or metaplastic (n = 10)) was 1.80, the “Slides with morphology using TCPP/Slides” value ([1]; Negative or metaplastic, 10 minutes, 36° C.) was 4/10 and the “Avg. # numerical descriptions per cell examined” value ([1]; Severe dysplasia (n = 8)) was 3.13. The “Slides with morphology using TCPP/Slides” value ([1]; Severe dysplasia) was 8/8, the “Samples demonstrating the same morphology using the TCPP method” value ([1]; among the ten samples characterized as normal or metaplastic by PAP-staining) was “four” and the “Sputum samples mildly dysplastic to cancerous by PAP-staining also identified as abnormal by TCPP detection” value ([1]; blinded study, 60 samples) was “Fifty out of fifty”. For the same compound, the “Average number of numerical classifications assigned” value ([1]; cells displaying adenicarcinoma, squamous cell and small cell carcinoma) was 5, the “Average number of numerical classifications assigned” value ([1]; cells having a negative or metaplastic morphology) was 2 and the “Samples also indicating fluorescence from nuclear debris (class 13 or 14)” value [1, 4] was “three”. For the same compound, the “Samples also showing class 10 designation (fluorescence from the nucleus only)” value [1, 4] was “two”, the “Samples designated with a class 11 cell description based on TCPP fluorescence” value ([1]; of the ten cell samples negative or metaplastic by PAP-staining) was 6 and the TCPP uptake ([1]; samples diagnosed as normal) was “minimal or no TCPP uptake”. For the same compound, the “TCPP-exposed cells fluorescing at which the sample reliably correlated with at least the mildly dysplastic diagnosis” value ([1]; sputum monolayer slides) was 2-3%, the “Maximum solubility in saline or blood” value [2] was “about 100 μg/mL” and the “Cellular uptake and localisation of TCPP” value [3] was “bound to the perinuclear membrane and mitochondria of neoplastic cells”.

Reference: patent US9417241B2, “5, 10, 15, 20-tetrakis (carboxyphenyl) porphine (TCPP) and kit for use with detecting cancer” (bioAffinity Technologies, Inc., priority 2000, dated 2016)
